# Test results from patent publication US11446287B2, “Compounds and methods for EP300 or CBP modulation and indications therefor” (Opna Immuno-Oncology SA, priority 2019, dated 2022).
# Molecular target: T1, Recombinant human CBP containing the bromodomain (CBP-BD (1043-1159)) (Homo sapiens, UniProt Q92793)
# T1 construct: Recombinant human CBP bromodomain (CBP-BD (1043-1159)); made in house; host or cells: E. coli BL21-CodonPlus (DE3), modified pET vector
# Test: CBP Alphascreen binding assay
# Details: read-out: CREBBP (CBP) IC50
# Outline: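 Buffer: 50 mM HEPES pH 7.5, 50 mM NaCl, 0.01% BSA, 0.01% Triton X-100, 2 mM DTT. The signal was normalised to plate controls and fitted with a four-parameter curve to give IC50.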
# T1 sequence (Q92793 1081-1197): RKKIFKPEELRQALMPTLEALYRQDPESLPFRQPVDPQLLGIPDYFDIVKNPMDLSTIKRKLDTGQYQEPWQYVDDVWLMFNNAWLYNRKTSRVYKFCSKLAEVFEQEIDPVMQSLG
row,Structure (SMILES),IC50 [µM]
1,"Cc1noc(C)c1-c1cnc2c(C(O)(C3CC3)C3CC3)cn(-c3ccc(C(=O)O)cc3OC(F)(F)F)c2c1 [P-0163, 4-(3-(dicyclopropyl(hydroxy)methyl)-6-(3,5-dimethylisoxazol-4-yl)-1H-pyrrolo[3,2-b]pyridin-1-yl)-3-(trifluoromethoxy)benzoic acid]",0.0001 to 1
2,"Cc1noc(C)c1-c1cnc2c(c1)c(-c1ccc(C(=O)O)cc1C(F)(F)F)cn2[C@@H](C)c1ccccn1 [P-0116, (S)-4-(5-(3,5-dimethylisoxazol-4-yl)-1-(1-(pyridin-2-yl)ethyl)-1H-pyrrolo[2,3-b]pyridin-3-yl)-3-(trifluoromethyl)benzoic acid]",0.0001 to 1
3,"Cc1noc(C)c1-c1cnc2c(-c3ccccc3Cl)cn(C(C)(c3ccccn3)c3ccccn3)c2c1 [P-0155, 4-(3-(2-chloropheny1)-1-(1,1-di(pyridin-2-yl)ethyl)-1H-pyrrolo[3,2-b]pyridin-6-yl)-3,5-dimethylisoxazole]",0.0001 to 1
4,"Cc1noc(C)c1-c1cnc2c(CC3CCC3)cn(-c3ccc(C(=O)O)c4ccoc34)c2c1 [P-0110, 7-(3-(cyclobutylmethyl)-6-(3,5-dimethylisoxazol-4-yl)-1H-pyrrolo[3,2-b]pyridin-1-yl)benzofuran-4-carboxylic acid]",0.0001 to 1
5,"Cc1noc(C)c1-c1cnc2c(C(=O)C3CCC3)cn(-c3c(Cl)cc(C(=O)O)cc3Cl)c2c1 [P-0121, 3,5-dichloro-4-(3-(cyclobutanecarbonyl)-6-(3,5-dimethylisoxazol-4-yl)-1H-pyrrolo[3,2-b]pyridin-1-yl)benzoic acid]",0.0001 to 1
6,"Cc1noc(C)c1-c1cnc2c(-c3cnn(C)c3)c(C(F)(F)F)n([C@@H](C)c3ccccn3)c2c1 [P-0160, (S)-3,5-dimethyl-4-(3-(1-methyl-1H-pyrazol-4-yl)-1-(1-(pyridin-2-yl)ethyl)-2-(trifluoromethyl)-1H-pyrrolo[3,2-b]pyridin-6-yl)isoxazole]",0.0001 to 1
7,"Cc1noc(C)c1-c1cnc2c(c1)c(-c1cccc(C(=O)O)c1)cn2CC1CC(F)(F)C1 [P-0101, 3-(1-((3,3-difluorocyclobutyl)methyl)-5-(3,5-dimethylisoxazol-4-yl)-1H-pyrrolo[2,3-b]pyridin-3-yl)benzoic acid]",0.0001 to 1
8,"Cc1noc(C)c1-c1cnc2c(c1)c(-c1ccc(C(=O)O)cc1OC(F)(F)F)cn2C(C1CC1)C1CC1 [P-0156, 4-(1-(dicyclopropylmethyl)-5-(3,5-dimethylisoxazol-4-yl)-1H-pyrrolo[2,3-b]pyridin-3-yl)-3-(trifluoromethoxy)benzoic acid]",0.0001 to 1
